Ten molecules from publication PMC10691697, “A small molecule exerts selective antiviral activity by targeting the human cytomegalovirus nuclear egress complex” (PLOS Pathogens, 2023) can be followed below.

“And” between values parts separate entries of the source, which are not always exact repeats. Equal entries are not always repeated.

In one experiment the target is T1, HCMV UL50-UL53 (Human cytomegalovirus, UniProt P16794).
T1 construct: GST (N, cleaved yes); 13-residue glycine-serine linker […]; made in house; host or cells: E. coli BL21 (DE3) RIPL
As to the kind of experiment: biochemical. Particulars: for scoring as a hit in the HTRF screen: hit = at least 50 percent inhibition of HTRF signal, ibrutinib up to 50 μM. In kind it is binding. For orientation: In TR-FRET formats the signal depends on donor and acceptor labels being close together.

Experiment [1] has as its target T2, HSV-1 P30-UL42 (Human herpesvirus 1, UniProt P10226).
T2 construct: containing UL42 residues 1–340; GST (N); glycine-serine linker of the modified pGEX6p plasmid (presence inferred) (N); made in house; host or cells: E. coli (UL42: pLysS BL21)
As to the kind of experiment: biochemical. In kind it is binding.

The target of experiment [2] is T3, HSV-1 P30-UL42 (Human herpesvirus 1, UniProt P10226).
T3 construct: containing UL42 residues 1–340; GST (N); glycine-serine linker of the modified pGEX6p plasmid (presence inferred) (N); made in house; host or cells: E. coli (UL42: pLysS BL21)
T3 sequence (P10226 whole entry, looked up): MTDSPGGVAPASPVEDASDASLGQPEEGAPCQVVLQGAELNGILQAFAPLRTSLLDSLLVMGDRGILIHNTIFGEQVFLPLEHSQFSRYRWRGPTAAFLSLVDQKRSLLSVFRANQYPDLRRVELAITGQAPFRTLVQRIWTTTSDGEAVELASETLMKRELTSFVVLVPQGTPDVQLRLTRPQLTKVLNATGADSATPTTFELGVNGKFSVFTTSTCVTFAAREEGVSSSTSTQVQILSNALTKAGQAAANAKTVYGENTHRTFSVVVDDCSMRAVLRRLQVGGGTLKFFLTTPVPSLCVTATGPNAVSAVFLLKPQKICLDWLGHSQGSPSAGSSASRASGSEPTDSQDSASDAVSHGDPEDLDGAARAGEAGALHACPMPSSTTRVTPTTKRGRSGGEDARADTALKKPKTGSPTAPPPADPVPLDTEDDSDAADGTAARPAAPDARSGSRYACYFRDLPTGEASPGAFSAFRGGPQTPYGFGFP
The experiment is described as follows: biochemical. It counts as binding. This is another data set of the same source.

Experiment [3] concerns the target T4, Myc-tagged HCMV UL53 (residues 50-292) (human cytomegalovirus (HCMV), UniProt P16794 50-292).
T4 construct: source: E. coli BL21 (DE3) RIPL, purified (glutathione-agarose, on-column PreScission digestion, size exclusion chromatography); not shown: GST, N-terminal, cleaved; Myc, N-terminal, kept
T4 sequence: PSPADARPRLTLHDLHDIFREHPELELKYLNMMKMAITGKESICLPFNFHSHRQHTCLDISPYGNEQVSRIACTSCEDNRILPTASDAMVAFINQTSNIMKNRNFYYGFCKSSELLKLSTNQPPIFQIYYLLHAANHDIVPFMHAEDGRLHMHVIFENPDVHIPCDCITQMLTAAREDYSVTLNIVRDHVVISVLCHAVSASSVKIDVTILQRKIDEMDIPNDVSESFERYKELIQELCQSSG
As to the kind of experiment: AlphaScreen or HTRF. Particulars: both partners purified. (In general: Alpha assays give light when donor and acceptor beads are brought close together.)

In experiment [4] the target is T5, His-tagged HCMV UL50 (residues 1-169) (human cytomegalovirus (HCMV), UniProt P16791 1-169).
T5 construct: also called His-UL50; tagged UL50; source: E. coli BL21 (DE3) RIPL, purified (nickel Sepharose, size exclusion chromatography); not shown: His, N-terminal, kept
T5 sequence: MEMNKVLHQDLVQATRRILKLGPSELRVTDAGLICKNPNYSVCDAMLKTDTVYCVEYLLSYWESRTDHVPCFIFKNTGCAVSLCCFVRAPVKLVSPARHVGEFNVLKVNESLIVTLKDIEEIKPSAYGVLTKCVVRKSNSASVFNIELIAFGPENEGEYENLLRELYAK
The experiment is described as follows: AlphaScreen or HTRF. The settings on record: both partners purified.

Experiment [5] has as its target T6, His-SUMO-tagged HSV-1 UL42 (residues 1-340) (herpes simplex virus 1 (HSV-1), UniProt P10226 1-340).
T6 construct: also called His-SUMO-UL42; His-tagged HSV-1 UL42; source: E. coli pLysS BL21, purified as described for the HCMV NEC proteins
T6 sequence: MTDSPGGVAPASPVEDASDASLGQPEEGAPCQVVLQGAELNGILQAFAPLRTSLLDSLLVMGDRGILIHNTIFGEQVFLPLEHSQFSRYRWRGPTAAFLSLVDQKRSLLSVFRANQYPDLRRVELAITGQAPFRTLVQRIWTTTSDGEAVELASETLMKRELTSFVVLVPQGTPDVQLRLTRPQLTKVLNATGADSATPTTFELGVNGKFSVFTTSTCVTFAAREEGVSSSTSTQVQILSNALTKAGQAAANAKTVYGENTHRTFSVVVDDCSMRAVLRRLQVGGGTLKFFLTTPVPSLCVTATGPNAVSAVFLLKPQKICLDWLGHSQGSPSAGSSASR
As to the kind of experiment: AlphaScreen or HTRF. The settings on record: both partners purified.

Setting [6] is: LINCS2 well 2, 10 μM in the assay.
Where [7] appears, read: LINCS2 well 4, 0.4 μM in the assay.
[8] abbreviates: Selleck well, 50 μM in the assay.

Regarding `C=CC(=O)N1CCC[C@@H](n2nc(-c3ccc(Oc4ccccc4)cc3)c3c(N)ncnc32)C1` [ibrutinib, reference compound], the “HTRF Channel 2 (620 nm)” value is 5736 and 5840 at HCMV UL50-UL53 (LINCS2 well 1, 50 μM in the assay); 5859 and 6111 at HCMV UL50-UL53 (setting [6]); 6125 and 5780 at HCMV UL50-UL53 (LINCS2 well 3, 2 μM in the assay); 5791 and 5828 at HCMV UL50-UL53 (setting [7]); 8631 and 9073 at HCMV UL50-UL53 (setting [8]). Also, the “HTRF Channel 1 (665 nm)” value is 31679 on HCMV UL50-UL53 (setting [6]); 31815 on HCMV UL50-UL53 (setting [7]); 7468 and 7529 at HCMV UL50-UL53 (setting [8]). Further, on HCMV UL50-UL53 (LINCS wells, 50, 10, 2 and 0.4 μM), the “inhibition in HTRF screen” value is on record as “Essentially no inhibition”. Besides, the “scoring as a hit in the HTRF screen” value at HCMV UL50-UL53 is “not registering as a hit”.
With `CCC(=O)Nc1cccc(Oc2ccnc3[nH]ccc23)c1` [aGK2], the “activity in the HTRF assay for NEC interactions” value at HCMV UL50-UL53 is reported as “little, if any activity”. Besides, the remaining activity at 1.56 µM was 95% at HCMV UL50-UL53 (WT UL50-UL53, 1.56 μM compound, replicates, read-out: normalized FRET signal relative to control without inhibitor) and 101% on HSV-1 P30-UL42 [1] (HSV1 P30-UL42, 1.56 μM compound, replicates, read-out: normalized FRET signal relative to control without inhibitor). The remaining activity at 3.13 µM on HCMV UL50-UL53 (WT UL50-UL53, 3.13 μM compound, replicates, read-out: normalized FRET signal relative to control without inhibitor) came to 95%; at HSV-1 P30-UL42 [1] (HSV1 P30-UL42, 3.13 μM compound, replicates, read-out: normalized FRET signal relative to control without inhibitor) it was 102%. For the same molecule, the remaining activity at 6.25 µM at HCMV UL50-UL53 (WT UL50-UL53, 6.25 μM compound, replicates, read-out: normalized FRET signal relative to control without inhibitor) was found to be 92%; at HSV-1 P30-UL42 [1] (HSV1 P30-UL42, 6.25 μM compound, replicates, read-out: normalized FRET signal relative to control without inhibitor), 99%. Besides, the remaining activity at 50 µM at HCMV UL50-UL53 (WT UL50-UL53, 50.00 μM compound, replicates, read-out: normalized FRET signal relative to control without inhibitor) was 93%; on HSV-1 P30-UL42 [1] (HSV1 P30-UL42, 50.00 μM compound, replicates, read-out: normalized FRET signal relative to control without inhibitor) it was 97%. Moreover, the remaining activity at 25 µM on HCMV UL50-UL53 (WT UL50-UL53, […] compound, replicates, read-out: normalized FRET signal relative to control without inhibitor) turned out to be 94%; at HSV-1 P30-UL42 [1] (HSV1 P30-UL42, […] compound, replicates, read-out: normalized FRET signal relative to control without inhibitor) it was 99%. For the same molecule, the “inhibition in the HSV-1 P30-UL42 counterscreen assay” value against HSV-1 P30-UL42 [1] (all concentrations tested (up to 50 μM)) is on record as “little, if any activity”.
Take `O=C([O-])c1ccccc1-c1c2cc(Br)c(=O)cc-2oc2[c]([Hg+])c([O-])c(Br)cc12.[Na+].[Na+].[OH-]` [merbromin, reference compound]: the “scoring as a hit in the HTRF screen” value at HCMV UL50-UL53 was “scored negative”.
On to “Untagged P30: untagged C-terminal 36 residues of HSV-1 UL30 (DDVAARLRAAGFGAVGAGATAEETRRMLHRAFDTLA) [reference compound]”, for which the HTRF ratio with HSV-1 P30-UL42 [2] (P30-UL42 + untagged protein, A665nm/A620nm * 10000, single replicates) was 26529 and 26670 and 27659. In the experiment with HSV-1 P30-UL42 [2] (P30-UL42 + untagged protein, triplicate), the “HTRF ratio, Mean” value was 26953. The same molecule registered a S/B in the experiment with HSV-1 P30-UL42 [2] (P30-UL42 with untagged protein) of 2.4.

B1: His-tagged HCMV UL50 (residues 1-169) (domain or fragment)
chain: MEMNKVLHQDLVQATRRILKLGPSELRVTDAGLICKNPNYSVCDAMLKTDTVYCVEYLLSYWESRTDHVPCFIFKNTGCAVSLCCFVRAPVKLVSPARHVGEFNVLKVNESLIVTLKDIEEIKPSAYGVLTKCVVRKSNSASVFNIELIAFGPENEGEYENLLRELYAK
notes: also called His-UL50; source: E. coli BL21 (DE3) RIPL, purified (nickel Sepharose, size exclusion chromatography); not shown: His, N-terminal, kept
On to B1, for which the Kd in experiment [3] was 220 nM and 380 nM.

B2: His-tagged HCMV UL50 (residues 1-169) C35N (domain or fragment)
chain: MEMNKVLHQDLVQATRRILKLGPSELRVTDAGLINKNPNYSVCDAMLKTDTVYCVEYLLSYWESRTDHVPCFIFKNTGCAVSLCCFVRAPVKLVSPARHVGEFNVLKVNESLIVTLKDIEEIKPSAYGVLTKCVVRKSNSASVFNIELIAFGPENEGEYENLLRELYAK
notes: source: E. coli BL21 (DE3) RIPL, purified (same methods as His-UL50); not shown: His, N-terminal, kept
Take B2: in experiment [3], the dissociation constant Kd was 110 nM and 190 nM.

B3: His-tagged HCMV UL50 (residues 1-169) C54S (domain or fragment)
chain: MEMNKVLHQDLVQATRRILKLGPSELRVTDAGLICKNPNYSVCDAMLKTDTVYSVEYLLSYWESRTDHVPCFIFKNTGCAVSLCCFVRAPVKLVSPARHVGEFNVLKVNESLIVTLKDIEEIKPSAYGVLTKCVVRKSNSASVFNIELIAFGPENEGEYENLLRELYAK
notes: as for B2
Consider B3, for which, in experiment [3], the Kd is 140 nM and 340 nM.

B4: His-tagged HCMV UL50 (residues 1-169) C79S (domain or fragment)
chain: MEMNKVLHQDLVQATRRILKLGPSELRVTDAGLICKNPNYSVCDAMLKTDTVYCVEYLLSYWESRTDHVPCFIFKNTGSAVSLCCFVRAPVKLVSPARHVGEFNVLKVNESLIVTLKDIEEIKPSAYGVLTKCVVRKSNSASVFNIELIAFGPENEGEYENLLRELYAK
notes: as for B2
As to B4, the dissociation constant (Kd) in experiment [3] is 230 nM and 450 nM.

B5: Myc-tagged HCMV UL53 (residues 50-292) with glycine-serine linker (domain or fragment)
chain: GGGGSGGGGSGGGPSPADARPRLTLHDLHDIFREHPELELKYLNMMKMAITGKESICLPFNFHSHRQHTCLDISPYGNEQVSRIACTSCEDNRILPTASDAMVAFINQTSNIMKNRNFYYGFCKSSELLKLSTNQPPIFQIYYLLHAANHDIVPFMHAEDGRLHMHVIFENPDVHIPCDCITQMLTAAREDYSVTLNIVRDHVVISVLCHAVSASSVKIDVTILQRKIDEMDIPNDVSESFERYKELIQELCQSSG
notes: source: E. coli BL21 (DE3) RIPL, purified (glutathione-agarose, on-column PreScission digestion, size exclusion chromatography); not shown: GST, N-terminal, cleaved; Myc, N-terminal, kept
For the molecule B5, the “HTRF ratio, fold over the background of either tagged subunit alone” value in experiment [4] is roughly 3 fold.

B6: Myc-tagged HSV-1 Pol C-terminal peptide P30 (UL30 residues 1200-1235) (peptide)
chain: GGGGSGGGGSGGGDDVAARLRTAGFGAVGAGATAEETRRMLHRAFDTLA
notes: source: E. coli, expressed and purified as described for Myc-UL53; not shown: Myc, N-terminal, kept
For B6, the binding result in experiment [5] was “binds”.

For orientation: Kd means the concentration at which binding is half-saturated. Read a high Kd as a looser complex.
